Source: article PMC9667932, “Isobactins: O-acyl isopeptide prodrugs of teixobactin and teixobactin derivatives” (Chemical Science, 2022)
Converted amounts (≈) assume the structure as drawn. Like-named read-outs stand apart in the source and are kept apart here. Marks after values point to notes of the source that are not given here.

Columns and labels:
[1] = system: human red blood cells; experiment: Hemolytic assay; format: cell-based
From the text: We evaluated the hemolytic activity of the O-acyl isopeptide prodrugs and the corresponding teixobactin analogues with human red blood cells (Fig. S14–S21 ^†). We used Triton X-100 and melittin as positive controls and vancomycin and water (vehicle) as negative controls in the hemolysis assays.[9,25,26] […] In contrast, 0.002% polysorbate 80 had no effect on the hemolytic activity of Lys10–teixobactin and Leu10–teixobactin and little effect on the corresponding O-acyl isopeptide prodrug analogues. When we performed hemolysis assays with teixobactin, we observed no hemolysis up to 100 μg mL^−1 without polysorbate 80 and modest hemolysis (4%) at 100 μg mL^−1 with 0.002% polysorbate 80. We observed no hemolysis with vancomycin at concentrations up to 100 μg mL^−1, and we observed 26–30% hemolysis with 1.25 μg mL^−1 melittin with and without 0.002% polysorbate 80.

[2] = system: four Gram-positive bacteria; conditions: Table 2
From the text: (§1) We used methicillin-susceptible and methicillin-resistant S. aureus as representative pathogens and B. subtilis and S. epidermidis as additional Gram-positive bacteria, and we used E. coli as a Gram-negative control.

[3] = system: Bacillus subtilis ATCC 6051; experiment: microbe, parasite or virus in culture
From the text: as §1

[4] = system: Escherichia coli ATCC 10798; experiment: microbe, parasite or virus in culture
From the text: as §1

[5] = system: Staphylococcus aureus (MRSA) ATCC 700698; experiment: microbe, parasite or virus in culture
From the text: as §1

[6] = system: Staphylococcus epidermidis ATCC 14990; experiment: microbe, parasite or virus in culture
From the text: as §1

[7] = system: Staphylococcus aureus (MSSA) ATCC 29213; experiment: microbe, parasite or virus in culture; conditions: ATCC29213|MSSA
From the text: as §1

[8] = in the presence of 0.002% polysorbate 80

CN[C@H](CC(C)C)C(=O)N[C@H]1C(=O)N[C@@H](CC(N)=O)C(=O)N[C@H]2C(=O)N[C@H]3C(=O)N[C@H](C(=O)N[C@H](C(=O)O)c4cc(O)cc(O)c4-c4cc3ccc4O)[C@H](O)c3ccc(c(Cl)c3)Oc3cc2cc(c3O[C@@H]2O[C@H](CO)[C@@H](O)[C@H](O)[C@H]2O[C@H]2C[C@](C)(N)[C@H](O)[C@H](C)O2)Oc2ccc(cc2Cl)[C@H]1O [Vancomycin, vancomycin, reference compound]
Hemolysis at concentrations up to 100 μg mL^−1 ([1]; negative control): no hemolysis | MICs (range over the Gram-positive bacteria) [2, 8]: 0.125 to 2 µg/mL | MIC ([3]; ATCC6051, read-out: MIC Bacillus subtilis ATCC 6051, culture media containing 0% polysorbate 80): 0.125 to 0.25 µg/mL (≈ 0.0863 to 0.173 µM) | MIC ([3]; ATCC6051, read-out: MIC Bacillus subtilis ATCC 6051, culture media containing 0.002% polysorbate 80): 0.5 µg/mL (≈ 0.345 µM) | MIC ([4]; ATCC10798, read-out: MIC Escherichia coli ATCC 10798, culture media containing 0% polysorbate 80): > 32 µg/mL | MIC ([4]; ATCC10798, read-out: MIC Escherichia coli ATCC 10798, culture media containing 0.002% polysorbate 80): > 8 µg/mL | MIC ([5]; Staphylococcus aureus, ATCC700698|MRSA, read-out: MIC Staphylococcus aureus (MRSA) ATCC 700698): 2 µg/mL (≈ 1.38 µM) | MIC Staphylococcus aureus (MRSA) ATCC 700698 ([5]; culture media containing 0.002% polysorbate 80): 2 ^b μg mL^−1 | MIC ([6]; ATCC14990, read-out: MIC Staphylococcus epidermidis ATCC 14990, culture media containing 0% polysorbate 80): 1 µg/mL (≈ 0.69 µM) | MIC ([6]; ATCC14990, read-out: MIC Staphylococcus epidermidis ATCC 14990, culture media containing 0.002% polysorbate 80): 2 µg/mL (≈ 1.38 µM) | MIC ([7]; read-out: MIC Staphylococcus aureus (MSSA) ATCC 29213, culture media containing 0% polysorbate 80): 0.5 µg/mL (≈ 0.345 µM) | MIC ([7]; read-out: MIC Staphylococcus aureus (MSSA) ATCC 29213, culture media containing 0.002% polysorbate 80): 1 µg/mL (≈ 0.69 µM)

melittin [reference compound]
Hemolysis at 1.25 μg mL^−1 ([1]; with and without 0.002% polysorbate 80, positive control): 26–30%

CC[C@H](C)[C@H](NC(=O)[C@@H](Cc1ccccc1)NC)C(=O)N[C@@H](CO)C(=O)N[C@H](CCC(N)=O)C(=O)N[C@@H](C(=O)N[C@H](C(=O)N[C@@H](CO)C(=O)N[C@H]1C(=O)N[C@@H](C)C(=O)N[C@@H](CCCCN)C(=O)N[C@@H]([C@@H](C)CC)C(=O)O[C@H]1C)[C@@H](C)CC)[C@@H](C)CC [Lys10–teixobactin]
Effect of 0.002% polysorbate 80 on the hemolytic activity [1]: no effect | MICs (range over the Gram-positive bacteria) [2, 8]: 0.25 to 2 µg/mL | MICs (range over the Gram-positive bacteria) ([2]; without polysorbate 80): 2 to 4 µg/mL

CC[C@H](C)[C@H](NC(=O)[C@@H](Cc1ccccc1)NC)C(=O)N[C@@H](CO)C(=O)N[C@H](CCC(N)=O)C(=O)N[C@@H](C(=O)N[C@H](C(=O)N[C@@H](CO)C(=O)N[C@H]1C(=O)N[C@@H](C)C(=O)N[C@@H](CC(C)C)C(=O)N[C@@H]([C@@H](C)CC)C(=O)O[C@H]1C)[C@@H](C)CC)[C@@H](C)CC [Leu10–teixobactin]
Effect of 0.002% polysorbate 80 on the hemolytic activity [1]: no effect | MIC Staphylococcus aureus (MRSA) ATCC 700698 ([5]; ATCC 700698): 2 ^a μg mL^−1
